This assay addresses T1, Human CaV2.2 channels (Homo sapiens, UniProt Q00975).
T1 construct: expressed in transfected cells
In words: Fluorescent assay for CaV2.2 channels using potassium depolarization to induce channel opening (FLIPR, Fluo 4). Format: cell-based. The settings on record: read-out: Activity Category: %-Inhib (CaV2.2) @3 μM @30 mM KCl; 3 μM test compound; 30 mM KCl as printed; HEK293 cells stably expressing human CaV2.2. The text has this: In the process, the Ca^2+ influx is quantified in the FLIPR assay with the aid of a Ca^2+-sensitive dye (type Fluo-4, Molecular Probes Europe BV, Leiden, the Netherlands) in a fluorescent imaging plate reader (FLIPR 3, Molecular Devices, Sunnyvale, USA), as described hereinafter.
Human CaV2.2 channels were stably expressed in HEK293 cells together with alpha2-delta and beta subunits of voltage gated calcium channels. In addition, an inwardly rectifying potassium channel (Kir2.3) was stably expressed in these cells to augment control of the cell membrane potential by the concentration of extracellular potassium ions. Raise of the extracellular potassium concentration leads to depolarization of the membrane potential and thus regulates the voltage dependent state of CaV2.2 channels. For preparation, cells were seeded in black poly-D-lysine coated 96-well plates (Becton Dickinson, Biocoat 4640) in 100 μL medium [500 mL DMEM/F-12 plus Glutamax (Invitrogen 31331-093) plus 5.5 mL MEM NEAA 100× (Invitrogen 11140-035) plus 50 mL FBS decomplemented (Invitrogen 10270-106) plus 200 μg/mL Geneticin (Invitrogen 10131-027) plus 50 μg/mL Hygromycin B (Invitrogen 10687-010) plus 2 μg/mL Blasticidin (anti-bl5b Invivo-Gen) plus 0.2 μg/mL Puromycin (A 11138-03)] at a cell density of 30.000 cells per well. Plates were incubated at 37° C. (5% CO2) for 20 to 23 h. On the day of experiment medium was discarded and cells were loaded with Fluo 4 by addition of 100 μL of basic assay buffer (10 mM HEPES, 1 mM KCl, 149 mM NaCl, 0.8 mM CaCl2, 1.7 mM MgCl2, 10 mM Glucose, 0.1% BSA. pH 7.4) containing 2 μM Fluo 4 (Molecular Probes; F-14201), 0.01% pluronic acid (Molecular Probes; P-6866) and 2.5 mM probenecid (Molecular Probes; P36400). Cells were incubated in the dark at 25° C. for 60 min. Then dye containing buffer was discarded and 100 μL basic (1 mM KCl) or alternative (30 mM KCl) assay buffer was added. The alternative assay buffer contained altered concentrations of KCl (30 mM) and NaCl (120 mM) and was used in order to promote the inactivated channel state. After that 25 μL of basic or alternative assay buffer with or without test compound were added and cells were incubated again in the dark at 25° C. for 15 min. Fluorescence intensity was measured on a FLIPR 3 instrument (Molecular Devices Corp., Sunnyvale, Calif.) with excitation at 480 nm and emission at 535 nm. After continuously reading fluorescence for 30 sec, 50 μL of basic assay buffer containing 210 mM KCl (NaCl omitted) were added for depolarization. Peak fluorescent signal intensity was determined and the amplitude of the peak signal, normalized to base line, was used to measure channel inhibition by test compounds.
T1 sequence (Q00975 whole entry): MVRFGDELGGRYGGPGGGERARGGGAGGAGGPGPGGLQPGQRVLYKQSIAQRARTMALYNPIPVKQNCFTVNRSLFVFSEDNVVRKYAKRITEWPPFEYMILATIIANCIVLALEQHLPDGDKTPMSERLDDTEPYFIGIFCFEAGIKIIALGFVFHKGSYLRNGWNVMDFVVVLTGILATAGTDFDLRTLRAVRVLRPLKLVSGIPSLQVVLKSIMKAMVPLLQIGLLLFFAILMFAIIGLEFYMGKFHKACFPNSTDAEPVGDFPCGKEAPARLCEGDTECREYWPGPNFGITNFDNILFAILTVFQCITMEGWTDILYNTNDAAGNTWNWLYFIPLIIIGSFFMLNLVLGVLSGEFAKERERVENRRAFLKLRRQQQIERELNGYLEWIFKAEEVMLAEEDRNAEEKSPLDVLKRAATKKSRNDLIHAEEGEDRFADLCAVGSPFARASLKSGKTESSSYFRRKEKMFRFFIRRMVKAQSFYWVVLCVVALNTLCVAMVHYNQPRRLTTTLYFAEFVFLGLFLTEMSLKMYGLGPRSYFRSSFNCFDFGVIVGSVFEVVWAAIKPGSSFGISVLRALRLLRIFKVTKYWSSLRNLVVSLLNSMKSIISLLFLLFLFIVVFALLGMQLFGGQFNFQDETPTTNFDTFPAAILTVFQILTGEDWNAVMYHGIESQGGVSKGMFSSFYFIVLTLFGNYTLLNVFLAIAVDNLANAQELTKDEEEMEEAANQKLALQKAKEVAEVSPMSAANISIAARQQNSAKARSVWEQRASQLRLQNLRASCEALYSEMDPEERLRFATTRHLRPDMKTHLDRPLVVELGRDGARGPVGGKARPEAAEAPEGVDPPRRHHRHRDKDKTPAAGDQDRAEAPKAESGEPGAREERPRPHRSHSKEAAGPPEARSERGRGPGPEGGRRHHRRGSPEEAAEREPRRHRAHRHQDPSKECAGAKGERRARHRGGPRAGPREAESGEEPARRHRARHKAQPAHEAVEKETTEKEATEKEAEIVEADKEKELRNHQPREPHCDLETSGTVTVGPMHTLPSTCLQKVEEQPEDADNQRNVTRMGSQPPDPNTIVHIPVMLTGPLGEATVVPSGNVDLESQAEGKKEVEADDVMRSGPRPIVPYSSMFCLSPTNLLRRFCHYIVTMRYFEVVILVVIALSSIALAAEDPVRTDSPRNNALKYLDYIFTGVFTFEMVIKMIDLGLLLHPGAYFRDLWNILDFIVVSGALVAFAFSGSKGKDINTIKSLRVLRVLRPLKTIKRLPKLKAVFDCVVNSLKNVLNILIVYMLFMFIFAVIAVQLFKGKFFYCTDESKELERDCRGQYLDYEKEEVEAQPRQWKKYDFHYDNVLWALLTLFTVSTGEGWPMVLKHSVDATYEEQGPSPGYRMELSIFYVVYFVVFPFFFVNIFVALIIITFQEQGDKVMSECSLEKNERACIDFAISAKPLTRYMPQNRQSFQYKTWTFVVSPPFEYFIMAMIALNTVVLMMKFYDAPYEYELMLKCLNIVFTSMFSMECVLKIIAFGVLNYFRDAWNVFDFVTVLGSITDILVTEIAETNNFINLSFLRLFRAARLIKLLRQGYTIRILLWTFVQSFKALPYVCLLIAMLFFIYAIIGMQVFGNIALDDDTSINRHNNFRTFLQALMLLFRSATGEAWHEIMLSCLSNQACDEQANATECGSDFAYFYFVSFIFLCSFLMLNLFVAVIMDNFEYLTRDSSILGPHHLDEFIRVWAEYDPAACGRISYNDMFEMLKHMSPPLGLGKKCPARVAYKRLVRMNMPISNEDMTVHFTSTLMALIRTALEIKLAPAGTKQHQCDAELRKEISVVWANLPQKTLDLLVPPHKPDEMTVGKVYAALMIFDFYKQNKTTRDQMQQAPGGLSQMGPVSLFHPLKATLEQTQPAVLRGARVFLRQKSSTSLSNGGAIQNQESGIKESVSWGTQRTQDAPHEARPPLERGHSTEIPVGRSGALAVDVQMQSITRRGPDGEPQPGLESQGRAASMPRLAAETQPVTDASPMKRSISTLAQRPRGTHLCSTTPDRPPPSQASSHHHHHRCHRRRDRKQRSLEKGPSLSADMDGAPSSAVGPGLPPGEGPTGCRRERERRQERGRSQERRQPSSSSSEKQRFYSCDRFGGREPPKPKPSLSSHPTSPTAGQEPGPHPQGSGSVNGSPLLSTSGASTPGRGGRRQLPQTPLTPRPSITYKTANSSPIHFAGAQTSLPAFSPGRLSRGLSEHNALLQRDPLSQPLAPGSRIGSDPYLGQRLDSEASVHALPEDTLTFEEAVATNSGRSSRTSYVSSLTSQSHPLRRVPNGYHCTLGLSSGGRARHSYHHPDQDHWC
T1 sequence (P54289 25-1103, further chain): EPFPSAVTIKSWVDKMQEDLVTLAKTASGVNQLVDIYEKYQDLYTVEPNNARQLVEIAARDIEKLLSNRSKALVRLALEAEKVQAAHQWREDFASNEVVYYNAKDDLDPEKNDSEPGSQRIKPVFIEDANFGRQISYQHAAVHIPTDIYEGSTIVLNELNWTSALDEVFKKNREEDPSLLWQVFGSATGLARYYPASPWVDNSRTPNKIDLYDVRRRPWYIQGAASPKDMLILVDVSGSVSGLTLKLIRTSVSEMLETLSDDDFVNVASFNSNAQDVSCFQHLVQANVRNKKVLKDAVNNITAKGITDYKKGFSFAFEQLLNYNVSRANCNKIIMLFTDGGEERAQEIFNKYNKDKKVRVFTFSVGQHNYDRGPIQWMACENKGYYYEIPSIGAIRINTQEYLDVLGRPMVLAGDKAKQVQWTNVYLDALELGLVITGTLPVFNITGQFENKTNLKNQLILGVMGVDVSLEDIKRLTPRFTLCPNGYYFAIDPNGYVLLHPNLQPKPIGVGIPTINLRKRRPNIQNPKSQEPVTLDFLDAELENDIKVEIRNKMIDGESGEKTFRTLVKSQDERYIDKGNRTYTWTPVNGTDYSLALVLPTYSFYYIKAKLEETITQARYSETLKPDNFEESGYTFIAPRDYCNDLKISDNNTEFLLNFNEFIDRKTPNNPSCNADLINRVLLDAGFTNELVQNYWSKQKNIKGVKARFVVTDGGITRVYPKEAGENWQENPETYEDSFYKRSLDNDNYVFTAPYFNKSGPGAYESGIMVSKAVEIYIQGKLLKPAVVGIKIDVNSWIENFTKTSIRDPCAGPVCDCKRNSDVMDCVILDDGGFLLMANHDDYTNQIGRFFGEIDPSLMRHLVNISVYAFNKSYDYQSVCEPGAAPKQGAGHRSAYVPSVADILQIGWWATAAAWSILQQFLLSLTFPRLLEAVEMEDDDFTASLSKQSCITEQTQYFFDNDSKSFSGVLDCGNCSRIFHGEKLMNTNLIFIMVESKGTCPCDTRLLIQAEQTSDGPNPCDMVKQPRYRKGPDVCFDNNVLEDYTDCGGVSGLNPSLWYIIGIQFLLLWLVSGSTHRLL
T1 sequence (P54284 whole entry, further chain): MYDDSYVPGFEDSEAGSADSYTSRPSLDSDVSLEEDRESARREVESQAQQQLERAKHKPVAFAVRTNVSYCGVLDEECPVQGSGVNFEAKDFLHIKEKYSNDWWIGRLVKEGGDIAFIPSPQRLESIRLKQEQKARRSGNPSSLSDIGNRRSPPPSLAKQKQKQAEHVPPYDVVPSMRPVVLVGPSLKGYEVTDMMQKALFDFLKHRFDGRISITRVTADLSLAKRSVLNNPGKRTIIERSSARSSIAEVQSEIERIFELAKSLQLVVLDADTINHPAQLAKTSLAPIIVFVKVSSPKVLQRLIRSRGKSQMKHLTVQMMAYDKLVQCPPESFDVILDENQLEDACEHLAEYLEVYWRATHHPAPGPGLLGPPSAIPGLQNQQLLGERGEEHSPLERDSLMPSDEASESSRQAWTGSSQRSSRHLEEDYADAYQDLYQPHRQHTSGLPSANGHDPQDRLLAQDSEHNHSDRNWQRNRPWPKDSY
As for `Cc1c(-c2ccc(Cl)cc2)c(C(=O)N2CCOCC2)n(Cc2cccc(=O)[nH]2)c1C(F)(F)F` [Example 054, 6-[[3-(4-Chlorophenyl)-4-methyl-2-(morpholine-4-carbonyl)-5-(trifluoromethyl)-1H-pyrrol-1-yl]-methyl]-1H-pyridin-2-one], the inhibition at 3 µM was 75 to 95%.

Turning to `CN(CC(C)(C)C)C(=O)c1c(-c2ccc(Cl)cc2)cc(C(F)(F)F)n1Cc1cn(C)nn1` [Example 009, 3-(4-Chlorophenyl)-N-(2,2-dimethyl-propyl)-N-methyl-1-[(1-methyl-1H-[1,2,3]triazol-4-yl)-methyl]-5-(trifluoromethyl)-1H-pyrrole-2-carboxylic acid amide], the inhibition at 3 µM lay in the range of 75 to 95%.

For the compound `CCc1cc(Cn2c(C(=O)N(C)CCS(C)(=O)=O)c(-c3ccc(Cl)cc3)c(C)c2C(F)(F)F)on1` [Example 001, 3-(4-Chlorophenyl)-1-[(3-ethyl-isoxazol-5-yl)-methyl]-N,4-dimethyl-N-(2-methylsulfonyl-ethyl)-5-(trifluoromethyl)-1H-pyrrole-2-carboxylic acid amide], the inhibition at 3 µM was over 95%.

For `CN(CC(C)(C)C)C(=O)c1c(-c2ccc(Cl)cc2)cc(C(F)(F)F)n1Cc1cncn1C` [Example 026, 3-(4-Chlorophenyl)-N-(2,2-dimethyl-propyl)-N-methyl-1-[(3-methyl-3H-imidazole-4-yl)-methyl]-5-(trifluoromethyl)-1H-pyrrole-2-carboxylic acid amide], the inhibition at 3 µM lay in the range of 75 to 95%.

As to `Cc1cc(Cn2c(C(=O)N(C)C(C)C)c(-c3ccc(Cl)cc3)c(C)c2C(F)(F)F)no1` [Example 068, 3-(4-Chlorophenyl)-N-isopropyl-N,4-dimethyl-1-[(5-methyl-isoxazol-3-yl)-methyl]-5-(trifluoromethyl)-1H-pyrrole-2-carboxylic acid amide], the inhibition at 3 µM is over 95%.

In the case of `Cc1c(-c2ccc(Cl)cc2)c(C(=O)N(C)CCS(C)(=O)=O)n(Cc2cncn2C)c1C(F)(F)F` [Example 003, 3-(4-Chlorophenyl)-N,4-dimethyl-1-[(3-methyl-3H-imidazole-4-yl)-methyl]-N-(2-methylsulfonyl-ethyl)-5-(trifluoromethyl)-1H-pyrrole-2-carboxylic acid amide], the inhibition at 3 µM lay in the range of 40 to 75%.

With `Cc1c(-c2ccc(Cl)cc2)c(C(=O)N2CCOCC2)n(Cn2ccccc2=O)c1C(F)(F)F` [Example 056, 1-[[3-(4-Chlorophenyl)-4-methyl-2-(morpholine-4-carbonyl)-5-(trifluoromethyl)-1H-pyrrol-1-yl]-methyl]-1H-pyridin-2-one], the inhibition at 3 µM was 75 to 95%.

On to `CN(CC(C)(C)C)C(=O)c1c(-c2ccc(Cl)cc2)cc(C(F)(F)F)n1Cc1nncn1C` [Example 027, 3-(4-Chlorophenyl)-N-(2,2-dimethyl-propyl)-N-methyl-1-[(4-methyl-4H-[1,2,4]triazol-3-yl)-methyl]-5-(trifluoromethyl)-1H-pyrrole-2-carboxylic acid amide], for which the inhibition at 3 µM fell in the range of 40 to 75%.

In the case of `Cc1c(-c2ccc(Cl)cc2)c(C(=O)N(C)CC(C)(C)C)n(-c2cnccn2)c1C(F)(F)F` [Example 049, 3-(4-Chlorophenyl)-N-(2,2-dimethyl-propyl)-N,4-dimethyl-1-pyrazin-2-yl-5-(trifluoromethyl)-1H-pyrrole-2-carboxylic acid amide], the inhibition at 3 µM is 75 to 95%.

Turning to `Cc1nnc(Cn2c(C(F)(F)F)cc(-c3ccc(Cl)cc3)c2C(=O)N(C)CC(C)(C)C)o1` [Example 014, 3-(4-Chlorophenyl)-N-(2,2-dimethyl-propyl)-N-methyl-1-[(5-methyl-[1,3,4]oxadiazol-2-yl)-methyl]-5-(trifluoromethyl)-1H-pyrrole-2-carboxylic acid amide], the inhibition at 3 µM fell in the range of 75 to 95%.

For the compound `Cc1c(-c2ccc(Cl)cc2)c(C(=O)N2CCS(=O)(=O)CC2)n(Cc2cn(C)cn2)c1C(F)(F)F` [Example 022, [3-(4-Chlorophenyl)-4-methyl-1-[(1-methyl-1H-imidazol-4-yl)-methyl]-5-(trifluoromethyl)-1H-pyrrol-2-yl]-(1,1-dioxo-[1,4]thiazinan-4-yl)-methanone], the inhibition at 3 µM lay within 40 to 75%.

For `Cc1c(-c2ccc(Cl)cc2)c(C(=O)N2CCOCC2)n(Cc2ncccn2)c1C(F)(F)F` [Example 047, [3-(4-Chlorophenyl)-4-methyl-1-(pyrimidin-2-yl-methyl)-5-(trifluoromethyl)-1H-pyrrol-2-yl]-morpholin-4-yl-methanone], the inhibition at 3 µM was over 95%.

On to `Cc1ncc(Cn2c(C(=O)N3CCOCC3)c(-c3ccc(Cl)cc3)c(C)c2C(F)(F)F)cn1` [Example 043, [3-(4-Chlorophenyl)-4-methyl-1-[(2-methyl-pyrimidin-5-yl)-methyl]-5-(trifluoromethyl)-1H-pyrrol-2-yl]-morpholin-4-yl-methanone], for which the inhibition at 3 µM is 75 to 95%.

With `Cc1noc(Cn2c(C(=O)N(C)CCS(C)(=O)=O)c(-c3ccc(Cl)cc3)c(C)c2C(F)(F)F)n1` [Example 015, 3-(4-Chlorophenyl)-N,4-dimethyl-1-[(3-methyl-[1,2,4]oxadiazol-5-yl)-methyl]-N-(2-methylsulfonyl-ethyl)-5-(trifluoromethyl)-1H-pyrrole-2-carboxylic acid amide], the inhibition at 3 µM fell in the range of 75 to 95%.

As for `CN(CC(C)(C)C)C(=O)c1c(-c2ccc(Cl)cc2)cc(C(F)(F)F)n1Cc1ccnn1C` [Example 008, 3-(4-Chlorophenyl)-N-(2,2-dimethyl-propyl)-N-methyl-1-[(2-methyl-2H-pyrazol-3-yl)-methyl]-5-(trifluoromethyl)-1H-pyrrole-2-carboxylic acid amide], the inhibition at 3 µM lay within 75 to 95%.

`CN(CC(C)(C)C)C(=O)c1c(-c2ccc(Cl)cc2)cc(C(F)(F)F)n1Cc1ncccn1` [Example 037, 3-(4-Chlorophenyl)-N-(2,2-dimethyl-propyl)-N-methyl-1-(pyrimidin-2-yl-methyl)-5-(trifluoromethyl)-1H-pyrrole-2-carboxylic acid amide]: the inhibition at 3 µM is over 95%.

Take `Cc1ncc(Cn2c(C(F)(F)F)cc(-c3ccc(Cl)cc3)c2C(=O)N(C)CC(C)(C)C)cn1` [Example 034, 3-(4-Chlorophenyl)-N-(2,2-dimethyl-propyl)-N-methyl-1-[(2-methyl-pyrimidin-5-yl)-methyl]-5-(trifluoromethyl)-1H-pyrrole-2-carboxylic acid amide]: the inhibition at 3 µM was 75 to 95%.

As to `CN(CC(C)(C)C)C(=O)c1c(-c2ccc(Cl)cc2)cc(C(F)(F)F)n1Cc1ccnc(C(F)(F)F)n1` [Example 033, 3-(4-Chlorophenyl)-N-(2,2-dimethyl-propyl)-N-methyl-5-(trifluoromethyl)-1-[[2-(trifluoromethyl)-pyrimidin-4-yl]-methyl]-1H-pyrrole-2-carboxylic acid amide], the inhibition at 3 µM lay in the range of 40 to 75%.

For the compound `Cc1ccnc(Cn2c(C(=O)N3CCOCC3)c(-c3ccc(Cl)cc3)c(C)c2C(F)(F)F)n1` [Example 046, [3-(4-Chlorophenyl)-4-methyl-1-[(4-methyl-pyrimidin-2-yl)-methyl]-5-(trifluoromethyl)-1H-pyrrol-2-yl]-morpholin-4-yl-methanone], the inhibition at 3 µM is over 95%.

As to `Cc1nc(Cn2c(C(F)(F)F)cc(-c3ccc(Cl)cc3)c2C(=O)N(C)CC(C)(C)C)no1` [Example 012, 3-(4-Chlorophenyl)-N-(2,2-dimethyl-propyl)-N-methyl-1-[(5-methyl-[1,2,4]oxadiazol-3-yl)-methyl]-5-(trifluoromethyl)-1H-pyrrole-2-carboxylic acid amide], the inhibition at 3 µM is over 95%.

For `Cc1c(-c2ccc(Cl)cc2F)c(C(=O)N(C)C2CC2)n(Cc2ncccn2)c1C(F)(F)F` [Example 063, 3-(4-Chloro-2-fluoro-phenyl)-N-cyclopropyl-N,4-dimethyl-1-(pyrimidin-2-yl-methyl)-5-(trifluoromethyl)-1H-pyrrole-2-carboxylic acid amide], the inhibition at 3 µM is over 95%.

On to `Cc1c(-c2ccc(Cl)cc2F)c(C(=O)N(C)C(C)C)n(Cc2ncccn2)c1C(F)(F)F` [Example 064, 3-(4-Chloro-2-fluoro-phenyl)-N-isopropyl-N,4-dimethyl-1-(pyrimidin-2-yl-methyl)-5-(trifluoromethyl)-1H-pyrrole-2-carboxylic acid amide], for which the inhibition at 3 µM was over 95%.
